The source of these data is patent US6713492B1, “N-acyloxylated cycloalkyl compounds, composition containing the same and methods of use therefor” (Daiichi Radioisotope Laboratories, Ltd., priority 1998, dated 2004).

For one data set, the system named is Esterase, Porcine Liver. Nature of the data set: Test for measuring enzyme activity: hydrolysis of the sample by esterase, followed by ESR. The settings on record: 1 mM sample solution, esterase 0.2-200 U/ml in phosphate buffered saline pH7.4, one minute, oxidised to nitroxide. It counts as in vitro ADME. The method, then: Capability of enzyme (esterase) activity determination by ESR using 1-acetoxy-3-carbamoyl-2,2,5,5-tetramethylpyrrolidine was examined. Esterase (3360 U/ml, manufactured by Sigma Co., Esterase, Porcine Liver) was diluted with a phosphate buffered saline solution (pH7.4, 67 mM) to concentrations of 0.2, 2, 20, and 200 U/ml. 100 μl of each diluent was added to 100 μl of a 1 mM sample solution, and allowed to stand for one minute. Specifically, the sample was converted into a hydroxylamine derivative using the esterase. Next, 10 μl of 10 mM sodium periodide phosphate buffered saline solution was added. Specifically, the hydroxylamine derivative produced was converted into a nitroxide derivative which can be measured by ESR. Finally, this solution is suctioned into a flat cell (manufactured by Labotech Co.) to measure ESR spectrum using “JES-REIX” manufactured by JEOL Ltd after one minute.
In addition, it was confirmed that the esterase activity can be measured by using this reaction.

For another data set, the system named is rat brain. Briefly: Measurement of ESR-CT image of rat brain after intraperitoneal administration. The class given is in vivo, Wister male rats. Conditions: 6 ml of 150 mM saline solution intraperitoneally, ESR-CT 20 minutes after administration. The method, then:
6 ml of 150 mM physiological saline solution of 1-acetoxy-3-carbamoyl-2,2,5,5-tetramethylpyrrolidine was intraperitoneally administered to Wister male rats (200 g, age: nine weeks) anesthesized with pentobarbital. The head of the rat was secured so that the part of the head 9 mm ahead of the external auditory meatus came to the center of the resonator. ESR-CT was measured 20 minutes after administration. The measuring conditions of ESR-CT were as follows.
(Measurement Conditions of ESR-CT)
Instrument: 700 MHz band electron spin resonance apparatus
Microwave frequency: 720 MHz
Central magnetic field: 25 mT
Magnetic field sweep width: 15 mT
Magnetic field modulation width: 0.2 mT
Magnetic field modulation frequency: 100 kHz
Magnetic field gradient: 1 mT/cm
Magnetic field gradient rotational angle: 20°
The measured black-and-white picture image is shown in FIG. 2, and a color picture image is attached as a reference figure. In FIG. 2, A is a rat brain ESR-CT image 1 mm posterior to the bregma, and B is a rat brain ESR-CT image 3 mm posterior to the bregma. FIG. 3 is a drawing describing the part of the brain indicated by the anatomical chart in FIG. 2.

Broadly, the melting point is the temperature of the solid-liquid transition. In the case of `CCC(=O)ON1C(C)(C)CC(C(N)=O)C1(C)C` (stereo not drawn) [Example 2, 1-Propionyloxy-3-carbamoyl-2,2,5,5-tetramethylpyrrolidine], the melting point was in the range of 116 to 117 °C. Same read-out and setting: the same measure for `CC1(C)CC(C(N)=O)C(C)(C)N1OC(=O)c1ccccc1` (stereo not drawn) [Example 4, 1-Benzoyloxy-3-carbamoyl-2,2,5,5-tetramethylpyrrolidine]: 199 to 201 °C; for `CC(=O)OC1CC(C)(C)N(OC(C)=O)C(C)(C)C1` [Example 5, 1,4-Diacetoxy-2,2,6,6-tetramethylpiperidine]: 72 to 73 °C. For the compound `CC(=O)ON1C(C)(C)CC(C(N)=O)C1(C)C` (stereo not drawn) [1-Acetoxy-3-carbamoyl-2,2,5,5-tetramethylpyrrolidine], the melting point was in the range of 150 to 151 °C. Moreover, the “hydrolysis by esterase (ESR signal strength vs esterase concentration)” value in the data set with Esterase, Porcine Liver is “hydrolyzed by esterase in a short time and the reaction is quantitative”. Further, the “transfer to the brain and conversion to nitroxide derivative” value in the data set on rat brain is “hydrolyzed after being transferred to the brain, and oxidized by intracerebral active oxygen and free radicals into a nitroxide derivative”.
